Measurements from patent US20180049457A1, “ENZYMATIC SYNTHESIS OF SOLUBLE GLUCAN FIBER” (E I DU PONT DE NEMOURS AND COMPANY, priority 2014, published 2018).

Experiments:
[1] = tested on: intestinal microbiota; experiment: In vitro gas production by intestinal microbiota (pre-conditioned faecal slurry); assay type: cell-based
Method: To measure the formation of gas by the intestinal microbiota, a pre-conditioned faecal slurry was incubated with test prebiotic (oligosaccharide or polysaccharide soluble fibers) and the volume of gas formed was measured. Fresh faecal material was pre-conditioned by dilution with 3 parts (w/v) of anaerobic simulator medium, stirring for 1 h under anaerobic conditions and filtering through 0.3-mm metal mesh after which it was incubated anaerobically for 24 h at 37° C.
The simulator medium used was composed as described by G. T. Macfarlane et al. (Microb. Ecol. 35(2):180-7 (1998)) containing the following constituents (g/L) in distilled water: starch (BDH Ltd.), 5.0; peptone, 0.05; tryptone, 5.0; yeast extract, 5.0; NaCl, 4.5; KCl, 4.5; mucin (porcine gastric type III), 4.0; casein (BDH Ltd.), 3.0; pectin (citrus), 2.0; xylan (oatspelt), 2.0; arabinogalactan (larch wood), 2.0; NaHCO3, 1.5; MgSO4, 1.25; guar gum, 1.0; inulin, 1.0; cysteine, 0.8; KH2PO4, 0.5; K2HPO4, 0.5; bile salts No. 3, 0.4; CaCl2×6 H2O, 0.15; FeSO4×7 H2O, 0.005; hemin, 0.05; and Tween 80, 1.0; cysteine hydrochloride, 6.3; Na2S×9 H2O, and 0.1% resazurin as an indication of sustained anaerobic conditions. The simulation medium was filtered through 0.3 mm metal mesh and divided into sealed serum bottles.
Test prebiotics were added from 10% (w/w) stock solutions to a final concentration of 1%. The incubation was performed at 37° C. while maintaining anaerobic conditions. Gas production due to microbial activity was measured manually after 24 h incubation using a scaled, airtight glass syringe, thereby also releasing the overpressure from the simulation unit.
Solutions of chromatographically-purified soluble oligosaccharide/polysaccharide fibers were dried to a constant weight by lyophilization. The individual soluble oligosaccharide/polysaccharide soluble fiber samples were subsequently evaluated as carbon source for in vitro gas production using the method described in the General Methods. PROMITOR® 85 (soluble corn fiber, Tate & Lyle), NUTRIOSE® FM06 (soluble corn fiber or dextrin, Roquette), FIBERSOL-2® 600F (digestion-resistant maltodextrin, Archer Daniels Midland Company & Matsutani Chemical), ORAFTI® GR (inulin from Beneo, Mannheim, Germany), LITESSE® Ultra™ (polydextrose, Danisco), GOS (galactooligosaccharide, Clasado Inc., Reading, UK), ORAFTI® P95 (oligofructose (fructo-oligosaccharide, FOS, Beneo), LACTITOL MC (4-O-β-D-Galactopyranosyl-D-glucitol monohydrate, Danisco) and glucose were included as control carbon sources. Table 61 lists the In vitro gas production by intestinal microbiota at 3 h and 24 h. Table 62 lists the in vitro gas production by intestinal microbiota from controls and the sequences identified from the GTF0459 homolog sequence search. Table 63 lists the in vitro gas production by intestinal microbiota from controls and truncations of homolog sequences identified from the GTF0459 homolog sequence search.

[2] = tested on: human faecal microbiota; experiment: Colonic fermentation modeling (semi-continuous colon simulator) and measurement of fatty acids; assay type: cell-based; conditions: test component 1% in ileal fluid, 48 h
Source text: Colonic fermentation was modeled using a semi-continuous colon simulator as described by Makivuokko et al. (Nutri. Cancer (2005) 52(1):94-104); in short; a colon simulator consists of four glass vessels which contain a simulated ileal fluid as described by Macfarlane et al. (Microb. Ecol. (1998) 35(2):180-187). The simulator is inoculated with a fresh human faecal microbiota and fed every third hour with new ileal liquid and part of the contents is transferred from one vessel to the next. The ileal fluid contains one of the described test components at a concentration of 1%. The simulation lasts for 48 h after which the content of the four vessels is harvested for further analysis. The further analysis involves the determination of microbial metabolites such as short chain fatty acids (SCFA); also referred to as volatile fatty acids (VFA) and branched chain fatty acids (BCFA). Analysis was performed as described by Holben et al. (Microb. Ecol. (2002) 44:175-185); in short; simulator content was centrifuged and the supernatant was used for SCFA and BCFA analysis. Pivalic acid (internal standard) and water were mixed with the supernatant and centrifuged. After centrifugation, oxalic acid solution was added to the supernatant and then the mixture was incubated at 4° C., and then centrifuged again. The resulting supernatant was analyzed by gas chromatography using a flame ionization detector and helium as the carrier gas. Comparative data generated from samples of LITESSE® ULTRA™ (polydextrose, Danisco), ORAFTI® P95 (oligofructose; fructo-oligosaccharide, “FOS”, Beneo), lactitol (Lactitol MC (4-O-β-D-galactopyranosyl-D-glucitol monohydrate, Danisco), and a negative control is also provided. The concentration of acetic, propionic, butyric, isobutyric, valeric, isovaleric, 2-methylbutyric, and lactic acid was determined (Table 64).

| SMILES | mL gas formation in 3 h ([1]; Table 61) | mL gas formation in 3 h ([1]; Table 62) | mL gas formation in 3 h ([1]; Table 63) | mL gas formation in 24 h ([1]; 24 h, Table 61) | mL gas formation in 24.5 h ([1]; Table 62) | mL gas formation in 24.5 h ([1]; Table 63) | Acetic [2] | Branched Chain Fatty Acids (BCFA) [2] | Butyric [2] | Lactic [2] | Propionic [2] | Short Chain Fatty Acids (SCFA) [2] |
| --- | --- | --- | --- | --- | --- | --- | --- | --- | --- | --- | --- | --- |
| O.OC[C@@H](O)[C@@H](O[C@@H]1O[C@H](CO)[C@H](O)[C@H](O)[C@H]1O)[C@H](O)[C@@H](O)CO [LACTITOL ® MC] | 2.0 mL | 2.0 mL | 3.0 mL | 4.8 mL | 1.5 mL | 2.0 mL | – | – | – | – | – | – |
| O.OC[C@@H](O)[C@@H](O[C@@H]1O[C@H](CO)[C@H](O)[C@H](O)[C@H]1O)[C@H](O)[C@@H](O)CO [LACTITOL MC, 4-O-β-D-Galactopyranosyl-D-glucitol monohydrate] | – | – | – | – | – | – | 318 mM | 7.5 mM | 94 mM | 52 mM | 42 mM | 506 mM |
